Experimental data: patent publication US9266905B2, “Color material and method for producing the same” (DAI NIPPON PRINTING CO., LTD., priority 2011, dated 2016)

Experiments:
[1] = Measurement of thermal stability (weight reduction rate, TG-DTA); type: physicochemical; conditions: heated to 230° C. at 10° C./minute, kept 60 minutes at 230° C.
Method: About 5 mg of each of color materials A to S of Examples 1 to 9 and Comparative examples 1 to 10, was put in a quartz pan and heated up to 230° C. at a heating rate of 10° C./minute, placing alumina on the quartz pan as a reference, by means of a differential thermogravimetric analyzer (TG-DTA) (product name; TG8120; manufactured by: Rigaku Corporation). After reaching 230° C., the temperature was kept for 60 minutes at 230° C. Then, a weight reduction rate was measured. The weight reduction rate was calculated by the following formula and can be used as an indicator of heat resistance. Weight reduction rate=(weight before heating−weight after heating)/weight before heating×100(%)

[2] = Measurement of decomposition point (TG-DTA); type: physicochemical; conditions: TG-DTA up to 800° C. at 10° C./minute, extrapolation temperature of the peak of the TG curve
Method: About 5 mg of each of color materials A to S of Examples 1 to 9 and Comparative examples 1 to 10, was put in a quartz pan, and measured by means of a differential thermogravimetric analyzer (TG-DTA) (product name; TG8120; manufactured by: Rigaku Corporation) up to 800° C. at a heating rate of 10° C./minute, placing alumina on the quartz pan as a reference. The extrapolation temperature of the peak of the thus-obtained TG curve was used as the decomposition point. The temperature of the decomposition point can be used as an indicator of heat resistance.

## CCN(CC)c1ccc(C(=C2C=CC(=[N+](CC)CC)C=C2)c2ccc(NCc3ccc(CNc4ccc(C(=C5C=CC(=[N+](CC)CC)C=C5)c5ccc(N(CC)CC)cc5)c5ccccc45)cc3)c3ccccc23)cc1 [Color material J]
[1]; listed as J
  Weight reduction rate: −35.1%
[2]; listed as J
  Decomposition point: 248 °C

## CCNc1ccc(C(=C2C=CC(=[N+](CC)CC)C=C2)c2ccc(N(CC)CC)cc2)c2ccccc12 [Color material R]
[1]; listed as R
  Weight reduction rate: −30.5%
[2]; listed as R
  Decomposition point: 259 °C

## CCN(CC)c1ccc(C(=C2C=CC(=[N+](CC)CC)C=C2)c2ccc(NCc3ccc(CNc4ccc(C(=C5C=CC(=[N+](CC)CC)C=C5)c5ccc(N(CC)CC)cc5)c5ccccc45)cc3)c3ccccc23)cc1 [Color material A]
[1]; listed as A
  Weight reduction rate: −19.1%
[2]; listed as A
  Decomposition point: 253 °C

## CCNc1ccc(C(=C2C=CC(=[N+](CC)CC)C=C2)c2ccc(N(CC)CC)cc2)c2ccccc12 [Color material K]
[1]; listed as K
  Weight reduction rate: −32.8%
[2]; listed as K
  Decomposition point: 237 °C

## CCNc1ccc(C(=C2C=CC(=[N+](CC)CC)C=C2)c2ccc(N(CC)CC)cc2)c2ccccc12 [Color material N]
[1]; listed as N
  Weight reduction rate: −38.3%
[2]; listed as N
  Decomposition point: 251 °C

## CCNc1ccc(C(=C2C=CC(=[N+](CC)CC)C=C2)c2ccc(N(CC)CC)cc2)c2ccccc12 [Color material Q]
[1]; listed as Q
  Weight reduction rate: −30.1%
[2]; listed as Q
  Decomposition point: 258 °C

## CCNc1ccc(C(=C2C=CC(=[N+](CC)CC)C=C2)c2ccc(N(CC)CC)cc2)c2ccccc12 [Color material L]
[1]; listed as L
  Weight reduction rate: −31.8%
[2]; listed as L
  Decomposition point: 241 °C

## CCN(CC)c1ccc(C(=C2C=CC(=[N+](CC)CC)C=C2)c2ccc(NCc3ccc(CNc4ccc(C(=C5C=CC(=[N+](CC)CC)C=C5)c5ccc(N(CC)CC)cc5)c5ccccc45)cc3)c3ccccc23)cc1 [Color material B]
[1]; listed as B
  Weight reduction rate: −10.7%
[2]; listed as B
  Decomposition point: 258 °C
